Patent EP1969933A1, “Di-halogen phenoxy phenylamidines and their use as fungicides” (Bayer CropScience AG, priority 2007, dated 2008)
Where two headings read alike, the source gives them in different places.

Experiments:
[1] = logP (acidic, pH 2.3, and neutral); type: physicochemical; details: for logP: read-out: logP neutr.
Puccinia recondita = assay: Puccinia test (wheat) / protective; type: in vivo; details: 240 h, 1000 ppm active ingredient, protective spray, evaluated 10 days after inoculation, 0 % = control, 100 % = no infestation, read-out: Wirkungsgrad
Excerpt: (§1) Zur Herstellung einer zweckmäßigen Wirkstoffzubereitung vermischt man 1 Gewichtsteil Wirkstoff mit den angegebenen Mengen Lösungsmittel und Emulgator und verdünnt das Konzentrat mit Wasser auf die gewünschte Konzentration.
Zur Prüfung auf protektive Wirksamkeit werden junge Pflanzen mit der Wirkstoffzubereitung in der angegebenen Aufwandmenge besprüht. Nach Antrocknen des Spritzbelages werden die Pflanzen mit einer Konidiensuspension von Puccinia recondita besprüht. Die Pflanzen verbleiben 48 Stunden bei 20°C und 100 % relativer Luftfeuchtigkeit in einer Inkubationskabine.
Die Pflanzen werden dann in einem Gewächshaus bei einer Temperatur von ca. 20°C und einer relativen Luftfeuchtigkeit von 80 % aufgestellt, um die Entwicklung von Rostpusteln zu begünstigen.
10 Tage nach der Inokulation erfolgt die Auswertung. Dabei bedeutet 0 % ein Wirkungsgrad, der demjenigen der Kontrolle entspricht, während ein Wirkungsgrad von 100 % bedeutet, daß kein Befall beobachtet wird.

[2] = tested on: Erysiphe graminis f. sp. hordei; assay: Erysiphe test (barley) / protective; type: in vivo; details: Blumeria graminis, 168 h, 500 ppm active ingredient, evaluated 7 days after inoculation, 0 % = control, 100 % = no infestation, read-out: Wirkungsgrad
Excerpt: as §1
Zur Prüfung auf protektive Wirksamkeit bespritzt man junge Getreidepflanzen mit der Wirkstoffzubereitung in der angegebenen Aufwandmenge. 1 Tag nach der Behandlung werden die Pflanzen mit Sporen von Erysiphe graminis f. sp. hordei inokuliert. Anschließend werden die Pflanzen in einem Gewächshaus bei 70 % relativer Luftfeuchtigkeit und einer Temperatur von 18°C aufgestellt.
7 Tage nach der Inokulation erfolgt die Auswertung. Dabei bedeutet 0 % ein Wirkungsgrad, der demjenigen der Kontrolle entspricht, während ein Wirkungsgrad von 100 % bedeutet, daß kein Befall beobachtet wird.

Podosphaera leucotricha = assay: Podosphaera test (apple) / protective; type: in vivo; details: 240 h, 100 ppm active ingredient, evaluated 10 days after inoculation, 0 % = control, 100 % = no infestation, read-out: Wirkungsgrad
Excerpt: as §1
Zur Prüfung auf protektive Wirksamkeit werden junge Pflanzen mit der Wirkstoffzubereitung in der angegebenen Aufwandmenge besprüht. Nach Antrocknen des Spritzbelages werden die Pflanzen mit einer wäßrigen Sporensuspension des Apfelmehltauerregers Podosphaera leucotricha inokuliert. Die Pflanzen werden dann im Gewächshaus bei ca. 23°C und einer relativen Luftfeuchtigkeit von ca. 70% aufgestellt.
(§2) 10 Tage nach der Inokulation erfolgt die Auswertung. Dabei bedeutet 0% ein Wirkungsgrad, der demjenigen der Kontrolle entspricht, während ein Wirkungsgrad von 100% bedeutet, daß kein Befall beobachtet wird.

Sphaerotheca fuliginea = assay: Sphaerotheca test (cucumber) / protective; type: in vivo; details: Podosphaera fuliginea, 168 h, 100ppm active ingredient, evaluated 7 days after inoculation, 0 % = control, 100 % = no infestation, read-out: Wirkungsgrad
Excerpt: as §1
Zur Prüfung auf protektive Wirksamkeit werden junge Pflanzen mit der Wirkstoffzubereitung in der angegebenen Aufwandmenge besprüht. Nach Antrocknen des Spritzbelages werden die Pflanzen mit einer wäßrigen Sporensuspension von Sphaerotheca fuliginea inokuliert. Die Pflanzen werden dann bei ca. 23°C und einer relativen Luftfeuchtigkeit von ca. 70% im Gewächshaus aufgestellt.
7 Tage nach der Inokulation erfolgt die Auswertung. Dabei bedeutet 0% ein Wirkungsgrad, der demjenigen der Kontrolle entspricht, während ein Wirkungsgrad von 100% bedeutet, daß kein Befall beobachtet wird.

Uromyces appendiculatus = assay: Uromyces test (bean) / protective; type: in vivo; details: 10ppm active ingredient, evaluated 10 days after inoculation, 0 % = control, 100 % = no infestation
Excerpt: as §1
Zur Prüfung auf protektive Wirksamkeit werden junge Pflanzen mit der Wirkstoffzubereitung in der angegebenen Aufwandmenge besprüht. Nach Antrocknen des Spritzbelages werden die Pflanzen mit einer wäßrigen Sporensuspension des Bohnenrosterregers Uromyces appendiculatus inokuliert und verbleiben dann 1 Tag bei ca. 20°C und 100% relativer Luftfeuchtigkeit in einer Inkubations-kabine.
Die Pflanzen werden dann im Gewächshaus bei ca. 21°C und einer relativen Luftfeuchtigkeit von ca. 90% aufgestellt.
as §2

Leptosphaeria nodorum = Leptosphaeria nodorum test (wheat) / protective; type: in vivo; details: 500 ppm active ingredient, evaluated 12-14 days after inoculation, 0 % = control, 100 % = no infestation
Excerpt: as §1
Zur Prüfung auf protektive Wirksamkeit bespritzt man junge Weizenpflanzen mit der Wirkstoffzubereitung in der angegebenen Aufwandmenge. 1 Tag nach der Behandlung werden die Pflanzen mit einer wäßrigen Sporensuspension von Leptosphaeria nodorum inokuliert und verbleiben dann 48h bei 100% rel. Luftfeuchte und 20°C. Anschließend werden die Pflanzen in einem Gewächshaus bei 80 % rel. Luftfeuchtigkeit und einer Temperatur von 22°C aufgestellt.
12-14 Tage nach der Inokulation erfolgt die Auswertung. Dabei bedeutet 0 % ein Wirkungsgrad, der demjenigen der Kontrolle entspricht, während ein Wirkungsgrad von 100 % bedeutet, dass kein Befall beobachtet wird.

[3] = pH 2, pH 2,3, read-out: log P (pH 2,3)
[4] = pH 2.3, acidic, read-out: logP sauer

Compound	logP ([1]; neutral)	logD [1, 4]	pest or weed control at 1000 ppm (Puccinia recondita) [%]	pest or weed control at 500 ppm [2] [%]	other results
Cc1cc(Oc2ccc(Cl)c(Cl)c2)c(C)cc1N [4-(3,4-Dichlorphenoxy)-2,5-dimethylanilin]					logD [1, 3]: 3.51
Cc1cc([N+](=O)[O-])c(C)cc1Oc1ccc(Cl)c(Cl)c1 [4-(3,4-Dichlorphenoxy)-2,5-dimethylnitrobenzol]					logD [1, 3]: 5.19
CCN(C)C=Nc1cc(C)c(Oc2ccc(F)c(F)c2)cc1C [Nr. 2]	6.2	2.37			
CCN(C)C=Nc1cc(C)c(Oc2cc(Br)cc(Br)c2)cc1C [Nr. 4]	6	2.5	≥ 70	≥ 70	pest or weed control at 100 ppm (Podosphaera leucotricha): ≥ 70%; pest or weed control at 100 ppm (Sphaerotheca fuliginea): ≥ 70%
Cc1cc(Oc2cc(Br)cc(Br)c2)c(C)cc1N=CN(C)C(C)C [Nr. 5]	6.4	2.62	≥ 70	≥ 70	
CCN(C)C=Nc1cc(C)c(Oc2cc(Cl)cc(Br)c2)cc1C [Nr. 6]	6.4	2.56	≥ 70	≥ 70	pest or weed control at 100 ppm (Podosphaera leucotricha): ≥ 70%; pest or weed control at 100 ppm (Sphaerotheca fuliginea): ≥ 70%
Cc1cc(Oc2cc(Cl)cc(Br)c2)c(C)cc1N=CN(C)C(C)C [Nr. 7]	6.8	2.7	≥ 70	≥ 70	pest or weed control at 100 ppm (Podosphaera leucotricha): ≥ 70%; pest or weed control at 100 ppm (Sphaerotheca fuliginea): ≥ 70%; Wirkungsgrad (Uromyces appendiculatus): ≥ 70%
CCN(C)C=Nc1cc(C)c(Oc2cc(F)cc(Cl)c2)cc1C [Nr. 8]	5.6	2.21	≥ 70	≥ 70	
Cc1cc(Oc2cc(F)cc(Cl)c2)c(C)cc1N=CN1CCCCC1 [Nr. 9]	6.3	2.42	≥ 70	≥ 70	pest or weed control at 100 ppm (Podosphaera leucotricha): ≥ 70%; pest or weed control at 100 ppm (Sphaerotheca fuliginea): ≥ 70%
Cc1cc(Oc2cc(F)cc(Cl)c2)c(C)cc1N=CN1CCCC1 [Nr. 10]	5.6	2.26			
CCCN(C)C=Nc1cc(C)c(Oc2cc(F)cc(Cl)c2)cc1C [Nr. 11]	6.1	2.39	≥ 70	≥ 70	pest or weed control at 100 ppm (Podosphaera leucotricha): ≥ 70%; pest or weed control at 100 ppm (Sphaerotheca fuliginea): ≥ 70%
Cc1cc(Oc2cc(F)cc(Br)c2)c(C)cc1N=CN1CCCCC1 [Nr. 12]	6.5	2.55	≥ 70	≥ 70	
Cc1cc(Oc2cc(F)cc(Br)c2)c(C)cc1N=CN1CCCC1 [Nr. 13]	5.7	2.37	≥ 70	≥ 70	
CCCN(C)C=Nc1cc(C)c(Oc2cc(F)cc(Br)c2)cc1C [Nr. 14]	7.4	2.37	≥ 70	≥ 70	
CCN(C)C=Nc1cc(C)c(Oc2ccc(Cl)c(Br)c2)cc1C [Nr. 15]	6.1	2.23	≥ 70		Wirkungsgrad (Leptosphaeria nodorum): ≥ 70%
Cc1cc(Oc2ccc(Cl)c(Br)c2)c(C)cc1N=CN1CCCCC1 [Nr. 16]	6.9	2.66	≥ 70		
CCCN(C)C=Nc1cc(C)c(Oc2ccc(Cl)c(Br)c2)cc1C [Nr. 17]	6.6	2.64			
Cc1cc(Oc2ccc(Cl)c(Br)c2)c(C)cc1N=CN1CCCC1 [Nr. 18]	6.6	2.56			
CCN(C)C=Nc1cc(C)c(Oc2cc(F)cc(I)c2)cc1C [Nr. 19]		2.4	≥ 70		
CCCN(C)C=Nc1cc(C)c(Oc2cc(F)cc(I)c2)cc1C [Nr. 20]	6.6	2.61			
Cc1cc(Oc2cc(F)cc(I)c2)c(C)cc1N=CN1CCCCC1 [Nr. 21]	6.8	2.6	≥ 70		Wirkungsgrad (Leptosphaeria nodorum): ≥ 70%
Cc1cc(Oc2cc(F)cc(I)c2)c(C)cc1N=CN1CCCC1 [Nr. 22]	6.6	2.46			
CCN(C)C=Nc1cc(C)c(Oc2ccc(F)c(Br)c2)cc1C [Nr. 23]	5.7	2.29	≥ 70		pest or weed control at 100 ppm (Sphaerotheca fuliginea): ≥ 70%; Wirkungsgrad (Uromyces appendiculatus): ≥ 70%
Cc1cc(Oc2ccc(Cl)c(I)c2)c(C)cc1N=CN(C)C(C)C [Nr. 24]	6.2	2.4	≥ 70		Wirkungsgrad (Leptosphaeria nodorum): ≥ 70%; pest or weed control at 100 ppm (Podosphaera leucotricha): ≥ 70%; pest or weed control at 100 ppm (Sphaerotheca fuliginea): ≥ 70%; Wirkungsgrad (Uromyces appendiculatus): ≥ 70%
CCN(C)C=Nc1cc(C)c(Oc2ccc(Cl)c(I)c2)cc1C [Nr. 25]		2.29	≥ 70		Wirkungsgrad (Leptosphaeria nodorum): ≥ 70%; pest or weed control at 100 ppm (Podosphaera leucotricha): ≥ 70%
Cc1cc(Oc2ccc(Cl)c(I)c2)c(C)cc1N=CN1CCCCC1 [Nr. 26]		2.52			Wirkungsgrad (Leptosphaeria nodorum): ≥ 70%
CCN(C)C=Nc1cc(C)c(Oc2ccc(Br)c(I)c2)cc1C [Nr. 27]	6.1	2.67			Wirkungsgrad (Leptosphaeria nodorum): ≥ 70%
CCCN(C)C=Nc1cc(C)c(Oc2cc(F)cc(Br)c2)cc1C [Nr. 28]					logP sauer ([1]; acidic): 2,91; logP neutr. ([1]; neutral): 6,9
Cc1cc(Oc2cc(F)cc(Br)c2)c(C)cc1N=CN1CC(C)OC(C)C1 (centres unmarked) [Nr. 29]	5.8	2.59			
CCN(C)C=Nc1cc(C)c(Oc2ccc(Cl)c(Cl)c2)cc1C [Nr. 30, N-Ethyl-N-methyl-N'-[4-(3,4-dichlorphenoxy)-2,5-dimethylphenyl]formamidin]					logD [1, 3]: 2.48
